Laboratory results taken from patent US20030109571A1, “Thromboxane ligands without blood clotting side effects” (ALLERGAN SALES, INC., priority 1993, published 2003).
Where two headings read alike, the source gives them in different places. Marks after values point to notes of the source that are not given here. Values belong to the molecule of their own block, whether it stands above or below them.

How the values were obtained:
Platelets (Human) = test: Platelet aggregation in platelet-rich plasma from healthy human donors; format: cell-based; conditions: for Kb: antagonist, read-out: KB Platelets aggreg
Description: (§1) Activity at different prostanoid receptors was measured in vitro in isolated smooth muscle preparations. FP-activity was measured as contraction of the isolated feline iris sphincter. EP1-activity was measured as contraction of the longitudinal smooth muscle of the isolated guinea pig ileum. EP3-activity was measured as inhibition of the twitch response induced by electrical field stimulation in the isolated guinea pig was deferens and as contraction of the longitudinal smooth muscle of the isolated chick ileum. TP-vasoconstrictor activity was measured as contraction of rings of the isolated rat thoracic aorta. Effects on platelets from healthy human donors were measured by incubating platelet-rich plasma with the compounds described herein. Inhibition of aggregation was determined by the ability of the compounds described herein to inhibit platelet aggregation in platelet-rich plasma induced by 20 μM ADP.

[1] = Dog intraocular pressure, topical dosing, applanation pneumatonometry; format: in vivo; conditions: for Intraocular pressure change: dog
Description: (§2) The compounds were prepared at the said concentrations in a vehicle comprising 0.1% polysorbate 80 and 10 mM TRIS base. Dogs and monkeys were treated by administering 25 ul to the ocular surface, the contralateral eye received vehicle as a control. Intraocular pressure was measured by applanation pneumatonometry. Experiments were performed with dogs and monkeys. Dog intraocular pressure was measured immediately before drug administration and at 2, 4 and 6 hour thereafter. Additional studies in monkeys were performed over a 5 day period and drug was administered at times 0, 6, 24, 30, 48, 54, 72, 78, and 96 hours. Monkey intraocular pressure was recorded just before drug administration on each day and at the 2 and 4 hour time intervals between dosing.

[2] = Monkey intraocular pressure, topical dosing over 5 days, applanation pneumatonometry; format: in vivo; parameters: Intraocular pressure change: unit not given beside the values; conditions: for Intraocular pressure change: monkey
Description: as §2

EP3 prostanoid receptor [3] = test: EP3-activity: contraction of longitudinal smooth muscle of isolated chick ileum; conditions: read-out: EC50 at EP3(d) (Chick Ileum)
Description: as §1

EP3 prostanoid receptor [4] = test: EP3-activity: inhibition of electrically induced twitch response in isolated guinea pig vas deferens; conditions: read-out: EC50 at EP3(c) (Guinea Pig vas deferens)
Description: as §1

FP prostanoid receptor = test: FP-activity: contraction of the isolated feline iris sphincter; conditions: concentration producing 50% of maximal response; read-out: EC50 at FP (Cat Iris)
Description: as §1

[5] = tested on: isolated perfused coronary arteries; conditions: at 1 μM; cited from earlier work
EP1 prostanoid receptor = test: EP1-activity: contraction of longitudinal smooth muscle of isolated guinea pig ileum
Description: as §1

[6] = molecular target: T1, TP-receptor (vascular, TPVASC) (Rattus norvegicus, UniProt P34978); test: TP-vasoconstrictor activity: contraction of rings of isolated rat thoracic aorta, without or with SQ29,548; conditions: for Kb: antagonist
T1 construct: measured in vitro in isolated smooth muscle preparations; from tissue; host or cells: rings of isolated rat thoracic aorta
T1 sequence (P34978 1-341): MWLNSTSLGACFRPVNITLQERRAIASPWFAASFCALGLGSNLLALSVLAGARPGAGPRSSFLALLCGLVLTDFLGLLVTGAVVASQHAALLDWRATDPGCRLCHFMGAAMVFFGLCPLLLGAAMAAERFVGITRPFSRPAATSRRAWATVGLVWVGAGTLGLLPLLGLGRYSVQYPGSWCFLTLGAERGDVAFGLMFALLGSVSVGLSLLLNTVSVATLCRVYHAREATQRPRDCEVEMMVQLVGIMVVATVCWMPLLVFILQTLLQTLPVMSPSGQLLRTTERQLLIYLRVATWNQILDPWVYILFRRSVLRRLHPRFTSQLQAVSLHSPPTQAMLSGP
Description: as §1
In addition, inhibition by the thromboxane A2-receptor antagonist SQ29,548 ([1S-[1α, 2α (5Z), 3α, 4α]]-7-[3-[[2-[phenylamino)carbonyl]-hydrazino]methyl]-7-oxabicyclo[2.2.1] hept-2-yl]-5-heptenoic acid) of vasoconstrictor activity was investigated.

HPRP = conditions: cited from earlier work; for Effect on HPRP: in words
rat aorta = conditions: read-out: CD50 contraction of isolated rat aorta; cited from earlier work
platelets = conditions: in words; cited from earlier work
vasculature = conditions: in words; cited from earlier work
[7] = Table 7, read-out: EC50 Platelets aggreg
[8] = Table 7, read-out: EC50 (Rat Aorta)

Molecule: 9,11-dideoxy-9α,11α-methanoepoxy prostaglandin F2α [Example U-46619, reference compound]
- EC50 (Platelets (Human); [7]): 320 nM
- Agonist response, platelet aggregation (Platelets (Human); agonist alone at 3.3 × 10-7): 97.7 ± 1.6 % of max response
- Agonist response, platelet aggregation (Platelets (Human); agonist alone at 10-6): 100.0 ± 1.9 % of max response
- Agonist response, platelet aggregation (Platelets (Human); agonist alone at 10-7): −7.0 + 1.1 % of max response
- Agonist response, platelet aggregation (Platelets (Human); agonist alone at 10-8): 0 % of max response
- Intraocular pressure change ([1]; dose 0.1%, 2 HR after dosing): +0.86
- Intraocular pressure change ([1]; dose 0.1%, 4 HR after dosing): +1.75
- Intraocular pressure change ([1]; dose 0.1%, 6 HR after dosing): +2.7
- Effect on intraocular pressure ([1]; dogs, in words): increase in intraocular pressure
- Intraocular pressure change ([2]; dose not given, 0 HR): 0
- Intraocular pressure change ([2]; dose not given, 2 HR): 2.0
- Intraocular pressure change ([2]; dose not given, 4 HR): 0.3
- Intraocular pressure change ([2]; dose not given, 6 HR): 1.0
- Effect on intraocular pressure ([2]; monkeys, in words): increase in intraocular pressure

- EC50 (EP3 prostanoid receptor [3]): 245 nM
- EC50 (EP3 prostanoid receptor [4]): 282 nM
- EC50 (FP prostanoid receptor): 433 nM
- EC50 (EP1 prostanoid receptor): 1240 nM
- EC50 ([6]; Table 1, read-out: EC50 at TPVASC (Rat Aorta)): 0.23 nM
- EC50 ([6]; absence of SQ29,548, read-out: EC50 at TPVASC-receptor, rat aorta): 2 nM
- EC50 ([6]; presence of SQ29,548 (1 uM), read-out: EC50 at TPVASC-receptor, rat aorta): 325 nM
Molecule: CCCCCC(O)/C=C/C1C2CC(OC(=O)O2)C1C/C=C\CCCC(=O)O (stereo not drawn) [Example 7]
- Inhibition of vasoconstriction of isolated perfused cat coronary artery induced by carbocyclic TXA2 [5]: Inhibited vasoconstriction of isolated perfused cat coronary artery induced by carbocyclic TXA2 by 72% at 1 μM^11
- EC50 (Platelets (Human); Table 1, read-out: EC50 Platelets (Human) Aggregation): 24 nM
- Agonist response, platelet aggregation (Platelets (Human); agonist alone at 3.3 × 10-8): −8.8 + 1.3 % of max response
- Agonist response, platelet aggregation (Platelets (Human); agonist alone at 10-6): 103.0 ± 1.9 % of max response
- Agonist response, platelet aggregation (Platelets (Human); agonist alone at 10-7): 100.5 ± 2.2 % of max response
- Agonist response, platelet aggregation (Platelets (Human); agonist alone at 10-8): −7.9 + 1.3 % of max response
- Agonist response, platelet aggregation (Platelets (Human); agonist alone at 10-9): 0 % of max response
- Intraocular pressure change ([1]; dose 0.01%, 2 HR after dosing): −9.7**
- Intraocular pressure change ([1]; dose 0.01%, 4 HR after dosing): −11.4**
- Intraocular pressure change ([1]; dose 0.01%, 6 HR after dosing): −11.25**
- Intraocular pressure change ([2]; dose 0.01%, 0 HR): 0
- Intraocular pressure change ([2]; dose 0.01%, 2 HR): −0.4
- Intraocular pressure change ([2]; dose 0.01%, 4 HR): 0
- Intraocular pressure change ([2]; dose 0.01%, 6 HR): 0
- Intraocular pressure change ([2]; dose 0.01%, 24 HR): −1.0
- Intraocular pressure change ([2]; dose 0.01%, 26 HR): 3.2
- Intraocular pressure change ([2]; dose 0.01%, 28 HR): −4.6
- Intraocular pressure change ([2]; dose 0.01%, 30 HR): −3.2
- Intraocular pressure change ([2]; dose 0.01%, 48 HR): −1.8
- Intraocular pressure change ([2]; dose 0.01%, 50 HR): −3.8
- Intraocular pressure change ([2]; dose 0.01%, 52 HR): −4.0
- Intraocular pressure change ([2]; dose 0.01%, 54 HR): −4.2
- Intraocular pressure change ([2]; dose 0.01%, 72 HR): 4.2
- Intraocular pressure change ([2]; dose 0.01%, 74 HR): −2.0
- Intraocular pressure change ([2]; dose 0.01%, 76 HR): −3.2
- Intraocular pressure change ([2]; dose 0.01%, 78 HR): −4.0
- Intraocular pressure change ([2]; dose 0.01%, 96 HR): −2.0
- Intraocular pressure change ([2]; dose 0.01%, 98 HR): −2.2
- Intraocular pressure change ([2]; dose 0.01%, 100 HR): −3.2

Molecule: CCCCCC(/C=C/C1C2CC(OC(=O)O2)C1C/C=C\CCCC(=O)OCc1ccccc1)OC(=O)C(C)(C)C (stereo not drawn) [Example 11, 7-16-carbobenzoxy-2-cis-hexenyl]-6-[3α-pivaloyloxy-1-trans-octenyl]-3-oxo-2,4-dioxobicyclo[3.2.11 octane]
- Effect on HPRP (HPRP): no effect
- Intraocular pressure change ([1]; dose 0.1%, 2 HR after dosing): −6.9**
- Intraocular pressure change ([1]; dose 0.1%, 4 HR after dosing): −7.7**
- Intraocular pressure change ([1]; dose 0.1%, 6 HR after dosing): −9.4**

Molecule: CCCCCC(/C=C/C1C2CC(OC(=O)O2)C1C/C=C\CCCC(=O)O)OC(=O)C(C)(C)C (stereo not drawn) [Example 12, 7-[6-carboxy-2-cis-hexenyl]-6-[3α-pivaloyloxy-1-trans-octenyl]-3-oxo-2,4-dioxobicyclo [3.2.1] Octane]
- Effect on HPRP (HPRP): no effect
- Intraocular pressure change ([1]; dose 0.1%, 2 HR after dosing): −3.8**
- Intraocular pressure change ([1]; dose 0.1%, 4 HR after dosing): −4.7**
- Intraocular pressure change ([1]; dose 0.1%, 6 HR after dosing): −6.9**

Molecule: CCCCC[C@H](O)/C=C/C1S[C@H]2CC(S2)[C@@H]1C/C=C\CCCC(=O)O (stereo partly drawn) [Example 13]
- IC50 (HPRP; read-out: IC50 irreversible aggregation of HPRP): 4300 nM
- EC50 (rat aorta): 0.7 nM

- Activity in contracting vascular smooth muscle ([6]; in words): pronounced activity
Molecule: CCCCCC(/C=C/C1C2CC(OC(=O)O2)C1C/C=C\CCCC(=O)O)O[Si](C)(C)C(C)(C)C (stereo not drawn) [Example 16, 7-[6-carboxy-2-cis-hexenyl]-6-[3α-t-butyldimethylsilyloxy-1-trans-octenyl]-3-oxo-2,4-dioxobicyclo [3.2.1] octane]
- Ability to cause platelet aggregation (Platelets (Human); in words): no or minimal ability
- Action on platelets (platelets): No effect
- Action on the vasculature (vasculature): weak vasoconstrictor activity

- EC50 [6, 8]: 2 nM
Molecule: I-BOP [reference compound]
- EC50 (Platelets (Human); [7]): 214 nM

Molecule: Pinane thromboxane A2 [reference compound]
- EC50 (Platelets (Human); [7]): 950 nM
- EC50 [6, 8]: 203 nM

Molecule: [1R-[1α, 4α, 5β(Z), 6α(1E, 3S*)-7-[6-(3-hydroxy-1-octenyl)-2-oxabicyclo[2.2.1]hept-5-yl]-5-hepten-1-ol [Example 19]
- EC50 [6, 8]: 26 nM

- Kb ([6]; Table 7): 1.6 nM
Molecule: [1S-[1α, 2α (5Z), 3α, 4α]]-7-[3-[[2-[phenylamino)carbonyl]-hydrazino]methyl]-7-oxabicyclo[2.2.1] hept-2-yl]-5-heptenoic acid [SQ29,548, reference compound]
- Kb (Platelets (Human); Table 7): 30.6 nM

Molecule: [1S-[1α, 2α(5Z), 3α, 4α]]-7-[3-[2(phenylamino)carbonyl]-hydrazino]methyl]-7-oxabicyclo [2.2.1]hept-2-yl]-5-hepten-1-ol [Example 22]
- Kb (Platelets (Human); Table 7): 4500 nM
- Kb ([6]; Table 7): 18.2 nM

Molecule: [1S-[1α, 2α(Z), 3β(1E, 3S*), 4α]]-7-[3-(3-hydroxy-4-(4-iodophenoxy)-1-butenyl]-7-oxabicyclo[2.2.1]hept-2-yl]-5-hepten-1-ol [Example 21]
- EC50 [6, 8]: 0.4 nM

Molecule: [1S-[1α, 2β(Z), 3(1E, 3R*), 5α]]-7-[3-(3-hydroxy-1-octenyl)-6,6-dimethylbicyclo[3.1.1]hept-2-yl]-5-hepten-1-ol [Example 20]
- EC50 [6, 8]: 929 nM
